System: Mouse lymphoma TK cells
Assay: TK suspension cell assay, treatment with dilutions of BAK and ZDBC
Format: cell-based
Conditions: 72±2 hours; for dose dependence of the decrease in cell growth: serial dilutions, 5% or 10% FBS
Protocol: For each test material, data were collected and the mean and SD were calculated using Excel. The IC50 was calculated using SigmaPlot. Determination of cytotoxicity and test acceptance criteria followed those described in JMHLW and ISO 10993-5: The relative colony-forming rate/relative growth rate of positive control (reference material B) should be equal or less than 10%, and negative control (Wako disk) should be equal or greater than 80%.
Relative cell growth rate (%)=[100×(Test cell concentration at time 72 hours−mean of blank cell concentration at time 0)÷(mean of blank cell concentration at time 72 hours−mean of blank cell concentration at time 0)]. The results are expressed as the mean±standard deviation (SD) from three independent studies and each study has six replicates for each lens.
Phosphate buffer (Cat. #SH30028.02, HyClone, Logan, Utah) was used for dilutions of BAK (1.25, 2.5, 5, 10, 25, and 50 parts per million) (Cat. #B1068, Spectrum Chemical, New Brunswick, N.J.). A total of 900 μL of 2.2×10^4 cells/mL TK cells in assay medium (RPMIFBS10 or RPMIFBS05) were seeded in a 24-well plate and then treated with different dilutions of BAK (100 μL) to achieve final concentrations of 0.125, 0.25, 0.5, 1.0, 2.5, and 5 ppm. Phosphate buffer (100 μL)-treated cells served as a blank control, reference material B (diameter (ϕ): 14 mm) as a positive control, and Wako tissue culture plastic disk served a negative control. After 72±2 hours incubation, 600 μL cells were mixed and transferred into the counter vial. The relative cell growth rate was determined and calculated as described above. The results are expressed as the mean±SD based on three replicates.
DMSO was used to dissolve ZDBC powder (Cat. #Z1031, Spectrum Chemical, New Brunswick, N.J.) to make […], 0.1, 0.2, 0.4, 0.8, and 2 mg/mL dilutions. Next, 995 μL of 2.0×10^4 cells/mL TK cells in assay medium (either RPMIFBS10 or RPMIFBS05) were seeded in a 24-well plate and treated with 5 μL of different ZDBC dilutions to achieve final concentrations of 0.25, 0.5, 1, 2, 4, and 10 μg/mL. DMSO (5 μL)-treated cells served as a blank control, reference material B (diameter (ϕ): 14 mm) as a positive control, and Wako tissue culture plastic disk served a negative control. After 72±2 hours incubation, 600 μL cells were mixed and transferred into the counter vial. The relative cell growth rate was determined and calculated as described above. The results are expressed as the mean±SD based on three replicates.

benzalkonium chloride [BAK]
IC50 (relative cell growth rate) (5% FBS): 0.55 ppm
IC50 (relative cell growth rate) (10% FBS): 0.59 ppm
cytotoxicity (at 0.25 and 0.125 ppm): not cytotoxic
cell growth inhibition as compared to the blank control (at 5, 2.5, 1, and 0.5 ppm): significant cell growth inhibition
dose dependence of the decrease in cell growth: dose-dependent decrease in cell growth

zinc dibutyldithiocarbamate [ZDBC]
IC50 (relative cell growth rate) (5% FBS medium): 2.0 µg/mL
IC50 (relative cell growth rate) (10% FBS medium): 4.5 µg/mL
dose dependence of the decrease in cell growth: dose-dependent decrease in cell growth

— patent publication US11378570B2, “Cytotoxicity test method for medical devices” (Alcon Inc., priority 2017, dated 2022)
